Laboratory results as given in ChEMBL document CHEMBL1201862, “PubChem BioAssay data set” (2004).
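Where inhibition never reached the appropriate level, the endpoint shown equals the highest concentration tested. Otherwise, values were interpolated linearly from a five-concentration, 48-hour dose response in 96-well plates. The concentration for 50% growth inhibition is given as GI50.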 Calls of active or inactive are those of the source. No stated cut-off is given here; in the data, active = GI50 up to about 1.1 µM and inactive = higher.

Key:
Assay in all cases: NCI tumour cell line growth inhibition, 48 h
[1] = system: SF-539
[2] = system: 786-0
[3] = system: U-251
[4] = system: T47D
[5] = system: CAKI-1
[6] = system: SNB-75
[7] = system: MDA-N
[8] = system: MCF7
[9] = system: KM12
[10] = system: SK-MEL-28
[11] = system: TK-10
[12] = system: Hs-578T
[13] = system: MDA-MB-435
[14] = system: K562
[15] = system: HOP-92
[16] = system: SK-MEL-2
[17] = system: UACC-62
[18] = system: SNB-19
[19] = system: HOP-62
[20] = system: NCI-H23

Measured: GI50

C=C(C(=O)O)[C@@H]1C[C@@H](OC(C)=O)[C@]2(C)CC/C=C(\C)CCC[C@H](C)[C@H](O)[C@@H]1O2
inactive: [1] 18 µM | [2] 44.5 µM | [3] > 100 µM | [4] > 100 µM | [5] 71 µM | [6] 74.8 µM | [7] 24.5 µM | [8] 26.7 µM | [9] 41.9 µM | [10] 77.4 µM | [11] 57.4 µM | [12] 49.9 µM | [13] 24.2 µM | [14] 75.2 µM | [15] 46 µM | [16] 71.8 µM | [17] 47.8 µM

Cc1cc2nc(N3C(=O)/C(=C/Cc4ccco4)N=C3c3ccccc3)sc2cc1C
inactive: [1] 41.1 µM | [2] 27.2 µM | [18] 49.7 µM | [3] 29 µM | [4] 31 µM | [5] 44.4 µM | [6] 17.7 µM | [7] 9.98 µM | [8] 13.4 µM | [9] 25.9 µM | [10] 64.6 µM | [11] 84.1 µM | [19] 54.7 µM | [12] 39.3 µM | [13] 7.53 µM | [14] 22.8 µM | [15] 10.2 µM | [16] 26.8 µM | [17] 23.3 µM

COC(C)(C)CCc1[nH]c2ccccc2c1CC(=O)NCCc1cncn1C
inactive: [1] > 100 µM | [2] > 100 µM | [18] > 100 µM | [3] > 100 µM | [4] > 100 µM | [5] > 100 µM | [6] > 100 µM | [7] > 100 µM | [8] > 100 µM | [9] > 100 µM | [10] > 100 µM | [11] > 100 µM | [20] > 100 µM | [12] > 100 µM | [13] > 100 µM | [14] > 100 µM | [15] > 100 µM | [16] > 100 µM | [17] > 100 µM

O=C1c2ccccc2CCC1C(O)(C(F)(F)F)C(F)(F)F (stereo unspecified)
inactive: [1] > 100 µM | [2] > 100 µM | [18] > 100 µM | [3] > 100 µM | [4] 44.3 µM | [5] > 100 µM | [6] 26.2 µM | [7] > 100 µM | [8] > 100 µM | [9] > 100 µM | [10] > 100 µM | [11] > 100 µM | [20] > 100 µM | [12] > 100 µM | [13] > 100 µM | [14] > 100 µM | [15] > 100 µM | [16] 27.5 µM | [17] > 100 µM

CCNc1ncnc2sc(SCc3ccccc3)nc12
inactive: [1] > 100 µM | [2] > 100 µM | [18] > 100 µM | [3] > 100 µM | [4] 75.5 µM | [5] 71.6 µM | [6] > 100 µM | [7] > 100 µM | [8] 79.6 µM | [9] 48.4 µM | [10] > 100 µM | [11] 60.7 µM | [19] > 100 µM | [20] 83.8 µM | [12] > 100 µM | [13] > 100 µM | [14] 81.7 µM | [15] 19.6 µM | [16] > 100 µM

Cc1nc(C(N)=S)sc1C(=O)CC(=O)C(=O)Nc1ccc(Br)cc1
inactive: [1] > 100 µM | [2] > 100 µM | [3] > 100 µM | [4] > 100 µM | [5] > 100 µM | [6] > 100 µM | [7] > 100 µM | [8] > 100 µM | [9] > 100 µM | [10] > 100 µM | [11] > 100 µM | [19] > 100 µM | [20] > 100 µM | [12] > 100 µM | [13] > 100 µM | [14] > 100 µM | [15] > 100 µM | [16] > 100 µM | [17] > 100 µM

C#CCNC(Cc1c[nH]cn1)C(=O)O (stereo unspecified)
inactive: [1] > 100 µM | [2] > 100 µM | [18] > 100 µM | [3] > 100 µM | [4] > 100 µM | [5] > 100 µM | [6] > 100 µM | [7] > 100 µM | [8] > 100 µM | [9] > 100 µM | [10] > 100 µM | [11] > 100 µM | [19] > 100 µM | [12] > 100 µM | [13] > 100 µM | [14] > 100 µM | [15] > 100 µM | [16] > 100 µM | [17] > 100 µM
